The values that follow come from patent US20260365653A1, “IRREVERSIBLE MUTEGFR INHIBITORS” (Bayer Aktiengesellschaft, priority 2022, published 2026).

One assay relates to BA/F3 (insSVD) cells. Kind of assay: Ba/F3-EGFR-insSVD cell survival assay (Cell Titer-Glo). In kind it is cell-based. As to conditions: Mus musculus, BaF3, 48 h, Table 3a, cell survival, Cell Titer-Glo, with 10 ng/ml EGF, without IL-3. In short, it runs like this: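 CellTiter-Glo luminescence read after 48 h compound exposure at 37° C. Cells: IL-3-independent Ba/F3 lines transduced with EGFR-insSVD or EGFR-insSVD T790M, maintained on 10 ng/ml EGF and seeded at 4000 per well.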
Background: In ATP-based viability assays light output follows the ATP content of the culture.

For assay [1], the target named is T1, mutEGFR (D770_N771insNPG, T790) (Homo sapiens, UniProt P00533, INS770NPG/T790M).
T1 construct: exact insNPG construct not described; in-house EGFR proteins were N-terminal GST fusions from baculovirus/insect cells (borders R669-A1210 given only for WT, insSVD, insASV)
Kind of assay: mutEGFR (D770_N771insNPG, T790) kinase assay. In kind it is biochemical. The settings on record: Table 2a, D770_N771insNPG. The source says: The different EGFR proteins used in the biochemical kinase activity inhibition assays were generated inhouse by expression in insect cells using Baculo Virus system and subsequent purification as described in the following paragraphs.
The cDNAs encoding the various protein sequences from human EGFR human (P00533) were optimized for expression in eukaryotic cells and synthesized by the GeneArt Technology at Life Technologies.

Assay [2] addresses T2, mutEGFR (D770_N771insSVD) (Homo sapiens, UniProt P00533, DUP768-770).
T2 construct: GST-EGFR #3 (SVD between D770 and N771); made in house; host or cells: Sf9 insect cells (baculovirus)
Kind of assay: Exon20-Mutant-EGFR (D770_N771insSVD) kinase assay (TR-FRET). Type of assay: biochemical. As to conditions: mutEGFR (D770_N771insSVD) kinase assay IC50, Table 2a; D770_N771insSVD; 2 mM ATP. On the technique in general: Time-resolved FRET reads energy transfer from a long-lived donor to a nearby acceptor.

T1 sequence (P00533 with tags, fused parts or gaps INS770NPG/T790M limits assumed): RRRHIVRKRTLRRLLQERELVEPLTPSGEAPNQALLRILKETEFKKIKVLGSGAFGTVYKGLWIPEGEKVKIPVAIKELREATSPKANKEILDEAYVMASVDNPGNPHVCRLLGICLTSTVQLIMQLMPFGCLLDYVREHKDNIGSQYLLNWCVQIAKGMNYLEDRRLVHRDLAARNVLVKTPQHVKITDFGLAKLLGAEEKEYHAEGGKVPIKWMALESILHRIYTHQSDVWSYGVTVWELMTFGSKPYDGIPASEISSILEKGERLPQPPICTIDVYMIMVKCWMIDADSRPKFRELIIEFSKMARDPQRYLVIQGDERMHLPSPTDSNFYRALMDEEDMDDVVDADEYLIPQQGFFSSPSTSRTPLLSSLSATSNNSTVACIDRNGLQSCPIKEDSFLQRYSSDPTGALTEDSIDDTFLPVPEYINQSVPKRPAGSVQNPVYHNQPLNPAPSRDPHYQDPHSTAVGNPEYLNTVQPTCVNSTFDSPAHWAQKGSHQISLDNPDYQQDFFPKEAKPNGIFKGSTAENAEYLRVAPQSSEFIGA
T2 sequence (P00533 with tags, fused parts or gaps DUP768-770): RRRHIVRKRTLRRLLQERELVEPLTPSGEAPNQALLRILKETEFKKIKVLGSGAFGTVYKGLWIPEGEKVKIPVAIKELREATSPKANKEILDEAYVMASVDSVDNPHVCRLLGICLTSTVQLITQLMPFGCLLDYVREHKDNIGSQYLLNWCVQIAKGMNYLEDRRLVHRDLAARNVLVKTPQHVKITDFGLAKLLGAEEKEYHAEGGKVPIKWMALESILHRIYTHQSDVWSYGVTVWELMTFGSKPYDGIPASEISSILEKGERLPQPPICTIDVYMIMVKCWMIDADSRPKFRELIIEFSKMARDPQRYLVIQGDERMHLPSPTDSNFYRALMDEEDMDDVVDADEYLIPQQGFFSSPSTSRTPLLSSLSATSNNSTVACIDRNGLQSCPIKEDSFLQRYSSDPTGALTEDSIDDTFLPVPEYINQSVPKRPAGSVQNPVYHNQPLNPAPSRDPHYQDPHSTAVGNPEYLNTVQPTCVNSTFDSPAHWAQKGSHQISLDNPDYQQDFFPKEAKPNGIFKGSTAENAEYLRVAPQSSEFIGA

`COC1CCN(C/C=C/C(=O)N2CCn3nc(-c4ccc(Cl)cc4)c(-c4ccncc4)c3C2)CC1` [Example 168, (2E)-1-[2-(4-chlorophenyl)-3-(pyridin-4-yl)-6,7-dihydropyrazolo[1,5-a]pyrazin-5(4H)-yl]-4-(4-methoxypiperidin-1-yl) but-2-en-1-one]: the IC50 (usually the concentration at which inhibition is half-maximal) in the assay with BA/F3 (insSVD) cells came to 63.7 nM; in assay [1] it was 0.692 nM; in assay [2] it was 0.245 nM.
For `COCCN(C)C/C=C/C(=O)N1CCn2nc(-c3ccc(Cl)cc3)c(-c3ccncc3)c2C1` [Example 169, (2E)-1-[2-(4-chlorophenyl)-3-(pyridin-4-yl)-6,7-dihydropyrazolo[1,5-a]pyrazin-5(4H)-yl]-4-[(2-methoxyethyl)(methyl)amino]but-2-en-1-one], in that order: 66.9 nM, 0.385 nM and 0.18 nM.
For `O=C(/C=C/CN1CCCC1)N1CCn2nc(-c3ccc(Cl)cc3)c(-c3ccncc3)c2C1` [Example 171, (2E)-1-[2-(4-chlorophenyl)-3-(pyridin-4-yl)-6,7-dihydropyrazolo[1,5-a]pyrazin-5(4H)-yl]-4-(pyrrolidin-1-yl)but-2-en-1-one], the IC50 in the assay on BA/F3 (insSVD) cells turned out to be 33.7 nM; in assay [1] it was 0.406 nM; in assay [2], 0.136 nM.
Turning to `O=C(/C=C/CN1CC(F)C1)N1CCn2nc(-c3ccc(Cl)cc3)c(-c3ccncc3)c2C1` [Example 172, (2E)-1-[2-(4-chlorophenyl)-3-(pyridin-4-yl)-6,7-dihydropyrazolo[1,5-a]pyrazin-5(4H)-yl]-4-(3-fluoroazetidin-1-yl) but-2-en-1-one], the IC50 came out at 43.2 nM in the assay with BA/F3 (insSVD) cells, 1.21 nM in assay [1] and 0.203 nM in assay [2].
For `C=CC(=O)N1CCn2nc(-c3ccc(F)cc3)c(-c3ccnc4[nH]cc(C)c34)c2C1` [Example 173, 1-[2-(4-fluorophenyl)-3-(3-methyl-1H-pyrrolo[2,3-b]pyridin-4-yl)-6,7-dihydropyrazolo[1,5-a]pyrazin-5(4H)-yl]prop-2-en-1-one], in that order: 62.8 nM, 25.5 nM and 157 nM.
On to `C=CC(=O)N1CCn2nc(-c3ccc(C(F)(F)F)cc3F)c(-c3ccnc4[nH]cc(C)c34)c2C1` [Example 174, 1-(2-(2-fluoro-4-(trifluoromethyl)phenyl)-3-(3-methyl-1H-pyrrolo[2,3-b]pyridin-4-yl)-6,7-dihydropyrazolo[1,5-a]pyrazin-5(4H)-yl) prop-2-en-1-one], for which the IC50 with BA/F3 (insSVD) cells is 160 nM; in assay [1], 2130 nM; in assay [2] it was 176 nM.
Take `C=CC(=O)N1CCn2nc(-c3ccc(Cl)cc3)c(-c3ccnc4[nH]cc(C)c34)c2C1` [Example 175, 1-[2-(4-chlorophenyl)-3-(3-methyl-1H-pyrrolo[2,3-b]pyridin-4-yl)-6,7-dihydropyrazolo[1,5-a]pyrazin-5(4H)-yl]prop-2-en-1-one]: the IC50 in the assay with BA/F3 (insSVD) cells amounted to 63.5 nM; in assay [1] it was 80.4 nM; in assay [2] it was 97.6 nM.
As for `C=CC(=O)N1CCn2nc(-c3cccc(Cl)c3)c(-c3ccnc4[nH]cc(C)c34)c2C1` [Example 177, 1-[2-(3-chlorophenyl)-3-(3-methyl-1H-pyrrolo[2,3-b]pyridin-4-yl)-6,7-dihydropyrazolo[1,5-a]pyrazin-5(4H)-yl]prop-2-en-1-one], the IC50 with BA/F3 (insSVD) cells was found to be 58.7 nM; in assay [1], 17.8 nM; in assay [2], 43.2 nM.
For `C=CC(=O)N1CCn2nc(-c3ccccc3Cl)c(-c3ccnc4[nH]cc(C)c34)c2C1` [Example 179, 1-[2-(2-chlorophenyl)-3-(3-methyl-1H-pyrrolo[2,3-b]pyridin-4-yl)-6,7-dihydropyrazolo[1,5-a]pyrazin-5(4H)-yl]prop-2-en-1-one], in that order: 265 nM, 360 nM and 438 nM.
Taken in the same sequence, the figures for `C=CC(=O)N1CCn2nc(-c3cc(Cl)ccc3F)c(-c3ccnc4[nH]cc(C)c34)c2C1` [Example 180, 1-[2-(5-chloro-2-fluorophenyl)-3-(3-methyl-1H-pyrrolo[2,3-b]pyridin-4-yl)-6,7-dihydropyrazolo[1,5-a]pyrazin-5(4H)-yl]prop-2-en-1-one] were 112 nM, 61.5 nM and 158 nM.
Taken in the same sequence, the figures for `C=CC(=O)N1CCn2nc(-c3ccc(C#N)cc3)c(-c3ccnc4[nH]cc(C)c34)c2C1` [Example 182, 4-[3-(3-methyl-1H-pyrrolo[2,3-b]pyridin-4-yl)-5-(prop-2-enoyl)-4,5,6,7-tetrahydropyrazolo[1,5-a]pyrazin-2-yl]benzonitrile] were 531 nM, 1080 nM and 861 nM.
In the case of `Cc1c[nH]c2nccc(-c3c(-c4ccc(Cl)cc4)nn4c3CN(C(=O)/C=C/CN(C)C)CC4)c12` [Example 183, (2E)-1-[2-(4-chlorophenyl)-3-(3-methyl-1H-pyrrolo[2,3-b]pyridin-4-yl)-6,7-dihydropyrazolo[1,5-a]pyrazin-5(4H)-yl]-4-(dimethylamino)but-2-en-1-one], the IC50 came out at 65.6 nM in the assay with BA/F3 (insSVD) cells, 217 nM in assay [1] and 96.8 nM in assay [2].
Regarding `Cc1c[nH]c2nccc(-c3c(-c4cccc(Cl)c4)nn4c3CN(C(=O)/C=C/CN(C)C)CC4)c12` [Example 184, (2E)-1-[2-(3-chlorophenyl)-3-(3-methyl-1H-pyrrolo[2,3-b]pyridin-4-yl)-6,7-dihydropyrazolo[1,5-a]pyrazin-5(4H)-yl]-4-(dimethylamino)but-2-en-1-one], the IC50 worked out at 56.6 nM with BA/F3 (insSVD) cells, 52.8 nM in assay [1] and 155 nM in assay [2].
For `Cc1c[nH]c2nccc(-c3c(-c4cccc5ccoc45)nn4c3CN(C(=O)/C=C/CN(C)C)CC4)c12` [Example 186, (2E)-1-[2-(1-benzofuran-7-yl)-3-(3-methyl-1H-pyrrolo[2,3-b]pyridin-4-yl)-6,7-dihydropyrazolo[1,5-a]pyrazin-5(4H)-yl]-4-(dimethylamino)but-2-en-1-one formic acid (1:1)], in that order: 557 nM, 129 nM and 210 nM.
Taken in the same sequence, the figures for `C=CC(=O)N1CCn2nc(-c3ccc(C(F)(F)F)nc3)c(-c3ccncc3)c2C1` [Example 188, 1-[3-(pyridin-4-yl)-2-[6-(trifluoromethyl)pyridin-3-yl]-6,7-dihydropyrazolo[1,5-a]pyrazin-5(4H)-yl]prop-2-en-1-one] were 149 nM, 11.2 nM and 155 nM.
For `C=CC(=O)N1CCn2nc(-c3ccccc3)c(-c3ccncc3)c2C1` [Example 189, 1-[2-phenyl-3-(pyridin-4-yl)-6,7-dihydropyrazolo[1,5-a]pyrazin-5(4H)-yl]prop-2-en-1-one], in that order: 22.3 nM, 1.74 nM and 1.02 nM.
With `C=CC(=O)N1CCn2nc(-c3ccc(Cl)c(CC)c3)c(-c3ccncc3)c2C1` [Example 190, 1-[2-(4-chloro-3-ethylphenyl)-3-(pyridin-4-yl)-6,7-dihydropyrazolo[1,5-a]pyrazin-5(4H)-yl]prop-2-en-1-one], the IC50 in the assay on BA/F3 (insSVD) cells is 172 nM; in assay [1], 3.03 nM; in assay [2] it was 1.03 nM.
For `C=CC(=O)N1CCn2nc(-c3ccc(Cl)cc3CO)c(-c3ccncc3)c2C1` [Example 191, 1-{2-[4-chloro-2-(hydroxymethyl)phenyl]-3-(pyridin-4-yl)-6,7-dihydropyrazolo[1,5-a]pyrazin-5(4H)-yl}prop-2-en-1-one], in that order: 32.9 nM, 1.26 nM and 0.626 nM.
Taken in the same sequence, the figures for `C=CC(=O)N1CCn2nc(-c3ccc4[nH]ccc4c3)c(-c3ccncc3)c2C1` [Example 193, 1-[2-(1H-indol-5-yl)-3-(pyridin-4-yl)-6,7-dihydropyrazolo[1,5-a]pyrazin-5(4H)-yl]prop-2-en-1-one] were 45.6 nM, 2.85 nM and 0.831 nM.
For `C=CC(=O)N1CCn2nc(-c3ccc4occc4c3)c(-c3ccncc3)c2C1` [Example 194, 1-[2-(1-benzofuran-5-yl)-3-(pyridin-4-yl)-6,7-dihydropyrazolo[1,5-a]pyrazin-5(4H)-yl]prop-2-en-1-one], in that order: 15.3 nM, 0.399 nM and 0.144 nM.
As for `CN(C)C/C=C/C(=O)N1CCn2nc(-c3ccc4sccc4c3)c(-c3ccncc3)c2C1` [Example 196, (2E)-1-[2-(1-benzothiophen-5-yl)-3-(pyridin-4-yl)-6,7-dihydropyrazolo[1,5-a]pyrazin-5(4H)-yl]-4-(dimethylamino)but-2-en-1-one], the values for the IC50 (in the assay on BA/F3 (insSVD) cells; in assay [1]; in assay [2]) were 40.4 nM, 0.421 nM and 0.183 nM, respectively.
Taken in the same sequence, the figures for `CN(C)C/C=C/C(=O)N1CCn2nc(-c3ccc4[nH]ccc4c3)c(-c3ccncc3)c2C1` [Example 197, (2E)-4-(dimethylamino)-1-[2-(1H-indol-5-yl)-3-(pyridin-4-yl)-6,7-dihydropyrazolo[1,5-a]pyrazin-5(4H)-yl]but-2-en-1-one] were 995 nM, 8.01 nM and 1.45 nM.
